Results from patent publication US20250179078A1, “INHIBITORS OF NLRP3” (PTC THERAPEUTICS, INC., priority 2022, published 2025).

Target: T1, NLRP3 (Homo sapiens, UniProt Q96P20)
T1 construct: host or cells: THP-1 cells differentiated with PMA
Assay: IL-1β Secretion Assay (NLRP3-dependent IL1β secretion in THP1 cells)
Format: cell-based
Conditions: PMA-differentiated THP-1 cells; compounds incubated 20 h; 2.5 μM Nigericin 3 h; HTRF IL-1β readout; read-out: IC50 IL-1β Inhibition
Method in brief: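 IL-1β in conditioned media, measured by HTRF after 3 h 2.5 μM nigericin stimulation, gave % inhibition fitted logistically for IC50. Before that, PMA-differentiated (100 ng/mL, 24 h) THP-1 cells were preincubated 20 h with 7 compound concentrations (3-fold serial, DMSO 1:200).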

T1 sequence (Q96P20 whole entry): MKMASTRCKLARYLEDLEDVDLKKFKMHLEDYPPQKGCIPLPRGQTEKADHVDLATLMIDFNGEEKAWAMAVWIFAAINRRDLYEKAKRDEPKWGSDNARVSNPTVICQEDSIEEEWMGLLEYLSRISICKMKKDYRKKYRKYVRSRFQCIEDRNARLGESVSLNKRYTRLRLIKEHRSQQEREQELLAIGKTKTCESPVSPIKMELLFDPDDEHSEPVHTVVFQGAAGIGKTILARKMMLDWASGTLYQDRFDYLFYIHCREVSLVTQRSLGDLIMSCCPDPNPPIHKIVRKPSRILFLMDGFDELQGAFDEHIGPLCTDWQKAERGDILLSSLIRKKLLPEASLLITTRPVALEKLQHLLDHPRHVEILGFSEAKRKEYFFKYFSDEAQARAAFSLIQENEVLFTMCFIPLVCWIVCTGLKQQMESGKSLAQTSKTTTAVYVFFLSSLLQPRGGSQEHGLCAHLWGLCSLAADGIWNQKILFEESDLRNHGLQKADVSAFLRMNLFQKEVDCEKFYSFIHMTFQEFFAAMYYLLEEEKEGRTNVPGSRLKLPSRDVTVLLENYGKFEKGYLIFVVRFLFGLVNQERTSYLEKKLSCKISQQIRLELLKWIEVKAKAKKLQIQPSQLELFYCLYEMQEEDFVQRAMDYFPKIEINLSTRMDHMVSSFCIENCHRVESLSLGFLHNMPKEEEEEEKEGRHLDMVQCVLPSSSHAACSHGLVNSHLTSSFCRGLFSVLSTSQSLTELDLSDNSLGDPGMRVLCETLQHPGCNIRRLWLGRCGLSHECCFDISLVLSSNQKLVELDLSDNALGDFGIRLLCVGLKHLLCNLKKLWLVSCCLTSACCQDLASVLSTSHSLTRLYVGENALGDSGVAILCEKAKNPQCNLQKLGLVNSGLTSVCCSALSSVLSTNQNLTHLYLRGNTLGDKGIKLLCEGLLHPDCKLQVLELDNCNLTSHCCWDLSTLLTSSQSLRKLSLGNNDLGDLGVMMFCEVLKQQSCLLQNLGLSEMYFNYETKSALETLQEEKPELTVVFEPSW

| SMILES | IC50 [nM] |
| --- | --- |
| COc1ccc(-c2nnc(N[C@@H]3CCOC[C@H]3O)n3cncc23)c(CC(F)(F)F)c1 [Compound 249, (3S,4R)-4-({1-[4-methoxy-2-(2,2,2-trifluoroethyl)phenyl]imidazo[1,5-d][1,2,4]triazin-4-yl}amino)oxan-3-ol] | 1 to 10 |
| CC(Nc1nnc(-c2ccc(C(F)(F)F)cc2OC(F)(F)F)c2cncn12)c1cccc(O)c1 (stereo not shown) [Compound 323, 3-[1-({1-[2-(trifluoromethoxy)-4-(trifluoromethyl)phenyl]imidazo[1,5-d][1,2,4]triazin-4-yl}amino)ethyl]phenol] | 1 to 10 |
| O[C@H]1COCC[C@@H]1Nc1nnc(-c2ccc(C(F)(F)F)cc2CC(F)(F)F)c2cccn12 [Compound 113, (3R,4S)-4-({1-[2-(2,2,2-trifluoroethyl)-4-(trifluoromethyl)phenyl]pyrrolo[1,2-d][1,2,4]triazin-4-yl}amino)oxan-3-ol] | 1 to 10 |
| O[C@@H]1CCCC[C@H]1Nc1nnc(-c2ccc(C(F)(F)F)cc2CC(F)(F)F)c2cncn12 [Compound 282, (1R,2R)-2-({1-[2-(2,2,2-trifluoroethyl)-4-(trifluoromethyl)phenyl]imidazo[1,5-d][1,2,4]triazin-4-yl}amino)cyclohexan-1-ol] | < 1 |
| Cc1ccc(-c2nnc(N[C@@H]3CCCN(C)C3)n3cncc23)c(C(F)(F)F)c1 [Compound 206, N-[(3R)-1-methylpiperidin-3-yl]-1-[4-methyl-2-(trifluoromethyl)phenyl]imidazo[1,5-d][1,2,4]triazin-4-amine] | < 1 |
| CCN1CCC[C@@H](Nc2nnc(-c3ccc(Cl)cc3Cl)c3cc(C)nn23)C1 [Compound 376, 4-(2,4-dichlorophenyl)-N-[(3R)-1-ethylpiperidin-3-yl]-2-methylpyrazolo[1,5-d][1,2,4]triazin-7-amine] | 1 to 10 |

Other lines, results leading:

| IC50 [nM] | SMILES |
| --- | --- |
| 1 to 10 | CCN1C[C@H](F)C[C@@H](Nc2nnc(-c3ccc(C(F)(F)F)cc3OC(F)F)c3c(F)ccn23)C1 [Compound 5, 1-[2-(difluoromethoxy)-4-(trifluoromethyl)phenyl]-N-[(3R,5R)-1-ethyl-5-fluoropiperidin-3-yl]-8-fluoropyrrolo[1,2-d][1,2,4]triazin-4-amine] |
| 1 to 10 | COc1ccc(-c2nnc(N[C@@H]3C[C@@H](F)CN(C)C3)n3cncc23)c(CC(F)(F)F)c1 [Compound 277, N-[(3R,5R)-5-fluoro-1-methylpiperidin-3-yl]-1-[4-methoxy-2-(2,2,2-trifluoroethyl)phenyl]imidazo[1,5-d][1,2,4]triazin-4-amine] |
| < 1 | C[C@]1(O)C[C@@H](Nc2nnc(-c3ccc(OC(F)F)cc3OC(F)(F)F)c3cncn23)C1 [Compound 244, (1s,3s)-3-({1-[4-(difluoromethoxy)-2-(trifluoromethoxy)phenyl]imidazo[1,5-d][1,2,4]triazin-4-yl}amino)-1-methylcyclobutan-1-ol] |
| 1 to 10 | CCC(=O)c1ccc(-c2nnc(N[C@@H]3CCCN(C)C3)n3cccc23)c(OC(F)F)c1 [Compound 95, 1-[3-(difluoromethoxy)-4-(4-{[(3R)-1-methylpiperidin-3-yl]amino}pyrrolo[1,2-d][1,2,4]triazin-1-yl)phenyl]propan-1-one] |
